Some test systems named below: IGROV1 ovarian; HCT-116 colon; NCI-H23 lung; A498 renal; OVCAR-8 ovarian; SF-539 CNS; SW-620 colon; OVCAR-4 ovarian; K-562 leukemia; SF-295 CNS.
Test in all cases: NCI tumour cell line growth inhibition, 48 h

Where “and” joins values, the source holds several entries; their conditions need not be identical. Equal values may be shown once.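 Cultured in 96-well plates, cells were exposed to test compound for 48 hours across five concentrations. At the GI50, growth is halved. TGI denotes the concentration required for complete inhibition of growth.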

Take `CCCCCCCCCCCCCCCC(=O)OCC1OC(n2cc(F)c(=O)[nH]c2=O)C(NC(=O)OCc2ccccc2)C(O)C1O` (centres undefined): the TGI in the experiment on IGROV1 ovarian turned out to be 46.6 µM; in the experiment on HCT-116 colon, 30.4 µM; with NCI-H23 lung, 43.6 µM; in the experiment with A498 renal it was 35.5 µM; in the experiment on OVCAR-8 ovarian, 37.2 µM; in the experiment with SF-539 CNS it was 30.9 µM. Besides, the TGI in the experiment with SW-620 colon is 73 µM; with OVCAR-4 ovarian it was 42 µM; in the experiment with K-562 leukemia, 31.8 µM; in the experiment with SF-295 CNS it was 32.5 µM.
Take `CCCCCCCCCCCCCC(=O)O[C@H]1CC[C@H](NC(=O)[C@H](OC)[C@H](O)[C@@H](O)[C@H](O)/C=C/C(C)C)C(=O)N(C)C1`: the GI50 was 0.00377 µM in the experiment on IGROV1 ovarian; 0.00328 µM in the experiment with NCI-H23 lung; 0.453 µM in the experiment on A498 renal; 0.00238 µM in the experiment with OVCAR-8 ovarian; 0.0126 µM in the experiment with SF-539 CNS; 0.00238 µM with SW-620 colon. In addition, the GI50 with OVCAR-4 ovarian was 0.00391 µM; with K-562 leukemia, 0.00238 µM; in the experiment on SF-295 CNS, 0.00238 µM. Besides, the TGI in the experiment with IGROV1 ovarian is 15 µM and > 23.8 µM; in the experiment on HCT-116 colon, 15 µM and 2.46 µM; in the experiment on NCI-H23 lung, 0.15 µM and 0.056 µM; in the experiment on A498 renal it was > 23.8 µM; with OVCAR-8 ovarian, 15 µM and 3.59 µM; with SF-539 CNS it was 15 µM and > 23.8 µM. The TGI with SW-620 colon was 15 µM and 5.48 µM; in the experiment on OVCAR-4 ovarian, 15 µM and 11.1 µM; in the experiment on K-562 leukemia it was 15 µM and > 23.8 µM; with SF-295 CNS, 15 µM and 3.03 µM.
As for `CN(C)CCNC(=O)Nc1ccc(N(C)c2ccnc(Nc3ccc(CS(C)(=O)=O)cc3)n2)cc1`, the GI50 was > 25 µM in the experiment on IGROV1 ovarian; > 25 µM in the experiment with HCT-116 colon; > 25 µM in the experiment on NCI-H23 lung; > 25 µM with A498 renal; > 25 µM in the experiment on OVCAR-8 ovarian; > 20.9 µM in the experiment on SF-539 CNS. Also, the GI50 in the experiment on SW-620 colon, in the experiment on OVCAR-4 ovarian, with K-562 leukemia and in the experiment with SF-295 CNS was > 25 µM throughout. In addition, the TGI in the experiment on IGROV1 ovarian, in the experiment on HCT-116 colon, with NCI-H23 lung, in the experiment with A498 renal, in the experiment with OVCAR-8 ovarian and in the experiment on SF-539 CNS was > 25 µM in each case. Besides, the TGI with SW-620 colon, in the experiment on OVCAR-4 ovarian, in the experiment with K-562 leukemia and with SF-295 CNS was > 25 µM each time.
As for `Nc1ncnc2c1c(-c1ccc(Oc3ccccc3)cc1)nn2CC1SSCC1O` (centres undefined), the GI50 in the experiment on IGROV1 ovarian is 2.44 µM; in the experiment on HCT-116 colon it was 0.59 µM; in the experiment on NCI-H23 lung it was 1.7 µM; with A498 renal, 5.1 µM; in the experiment on OVCAR-8 ovarian, 7.51 µM; in the experiment with SF-539 CNS it was 1.05 µM. Further, the GI50 with SW-620 colon was 1.58 µM; with OVCAR-4 ovarian it was 2.2 µM; in the experiment on K-562 leukemia it was 0.788 µM; with SF-295 CNS, 6.36 µM. For the same compound, the TGI in the experiment with IGROV1 ovarian came to 8.31 µM; in the experiment with HCT-116 colon, 4.65 µM; in the experiment on NCI-H23 lung, 7.97 µM; in the experiment on A498 renal, 11.6 µM; in the experiment with OVCAR-8 ovarian, 23.3 µM; in the experiment on SF-539 CNS, 8.19 µM. The TGI with SW-620 colon was found to be 32.5 µM; in the experiment on OVCAR-4 ovarian it was 22.1 µM; in the experiment on K-562 leukemia, 7.39 µM; in the experiment with SF-295 CNS, 15.8 µM.
For `O=c1c2ccccc2nc(-c2cccc(Cl)c2)n1NC1OC(CO)C(O)C(O)C1O` (centres undefined), the TGI with IGROV1 ovarian, in the experiment on HCT-116 colon, with NCI-H23 lung, with A498 renal, with OVCAR-8 ovarian and with SF-539 CNS was > 100 µM each time. The TGI with SW-620 colon, in the experiment on OVCAR-4 ovarian, in the experiment with K-562 leukemia and with SF-295 CNS was > 100 µM each time.
For `Cn1cc(-c2ccc3ncc(-c4ccc(CC(=O)Nc5cc(C(C)(C)C)nn5C)cc4)cc3c2)cn1`, the GI50 in the experiment on IGROV1 ovarian was 0.568 µM; in the experiment on HCT-116 colon it was 0.887 µM; in the experiment on NCI-H23 lung, 1.1 µM; in the experiment on A498 renal it was 0.422 µM; in the experiment with OVCAR-8 ovarian, 0.736 µM; in the experiment on SF-539 CNS it was 2.22 µM. Besides, the GI50 is 1.67 µM in the experiment with SW-620 colon, 0.687 µM with OVCAR-4 ovarian, 1.13 µM in the experiment on K-562 leukemia and 1.58 µM in the experiment on SF-295 CNS. The TGI in the experiment with IGROV1 ovarian was > 20 µM; with HCT-116 colon it was > 20 µM; in the experiment with NCI-H23 lung, > 20 µM; with A498 renal it was 1.66 µM; in the experiment with OVCAR-8 ovarian, 7.08 µM; in the experiment with SF-539 CNS, > 20 µM. The TGI with SW-620 colon is > 20 µM; in the experiment with OVCAR-4 ovarian it was 5.03 µM; with K-562 leukemia, > 20 µM; in the experiment with SF-295 CNS, > 20 µM.
`O=C([O-])c1ccc([I+]c2ccccc2)cc1`: the TGI with IGROV1 ovarian, in the experiment on HCT-116 colon, in the experiment with NCI-H23 lung, in the experiment with A498 renal, in the experiment on OVCAR-8 ovarian and in the experiment with SF-539 CNS was > 100 µM each time. The TGI with SW-620 colon, in the experiment with OVCAR-4 ovarian, in the experiment with K-562 leukemia and in the experiment with SF-295 CNS was > 100 µM each time.
On to `CCc1c(OC(C)=O)c2c(NC3OC(COC(C)=O)C(OC(C)=O)C(OC(C)=O)C3OC(C)=O)nc(SC)nc2oc1=O` (centres undefined), for which the TGI with IGROV1 ovarian, with HCT-116 colon, in the experiment with NCI-H23 lung, in the experiment on A498 renal, in the experiment with OVCAR-8 ovarian and in the experiment with SF-539 CNS was > 100 µM each time. For the same compound, the TGI in the experiment with SW-620 colon, with OVCAR-4 ovarian, in the experiment on K-562 leukemia and in the experiment on SF-295 CNS was > 100 µM in each case.
Turning to `Oc1cn(-c2ccc(Cl)cc2)nc1-c1n[nH]c(=S)n1-c1ccc(F)cc1`, the GI50 in the experiment on IGROV1 ovarian is 7.12 µM; in the experiment on HCT-116 colon, 11.6 µM; in the experiment on NCI-H23 lung, 15.7 µM; in the experiment with A498 renal it was 34.6 µM; with OVCAR-8 ovarian, 27.3 µM; in the experiment on SF-539 CNS, 15.1 µM. The GI50 was 22.8 µM in the experiment with SW-620 colon, 45.4 µM in the experiment with OVCAR-4 ovarian, 12.6 µM in the experiment with K-562 leukemia and 14.8 µM in the experiment with SF-295 CNS. Besides, the TGI is 24.1 µM in the experiment on IGROV1 ovarian; 25.5 µM in the experiment with HCT-116 colon; 33 µM with NCI-H23 lung; 76.5 µM in the experiment on A498 renal; > 100 µM in the experiment with OVCAR-8 ovarian; 34.9 µM in the experiment on SF-539 CNS. Besides, the TGI is 78.3 µM in the experiment on SW-620 colon, > 100 µM in the experiment with OVCAR-4 ovarian, > 100 µM with K-562 leukemia and 66.9 µM with SF-295 CNS.
